Measured values as given in patent publication US4927658A, “Tris-hydroxymethyl alkane esters as low calorie fat mimetics” (Nabisco Brands, Inc., priority 1989, dated 1990).

Legend:
[1] = tested on: porcine pancreatic lipase; assay: in vitro digestibility using pancreatic lipase; assay type: in vitro ADME; conditions: 37° C., pH 7.1
Description: This example outlines the procedure for estimating the in vitro digestibility of the synthetic fat mimetics of this invention using pancreatic lipase.
1. Buffer: A pH 7.1 phosphate buffer is prepared by dissolving 6.8 g. KH2 PO4 in 1 L. of millipore filtered water (to yield 0.05M phosphate). Fifty mg. Ca(NO3)2 and 5.0 g. cholic acid (Na salt, an ox bile isolate from Sigma) are added to give 300 microM Ca^++ and 0.5% cholic acid in 0.05M phosphate. The pH is adjusted to approximately 7.1 with solid NaOH. Several drops of Baker "Resi-analyzed" toluene are added to prevent bacterial growth during storage at 3°-5° C.
2. Lipase: About 15 mg./mL commercial porcine pancreatic lipase from U.S. Biochemical Corporation is dissolved in buffer.
3. Substrates and Standards: A 1.0 mL volumetric flask is charged with an amount of lipid substrate (test substance or standard) calculated to give a concentration of 200 nanomoles per microliter in Baker "Resi-analyzed" toluene. (The proper concentration may be approximated by […] the molecular weight of the lipid in question, dividing by 10, and diluting to the mark; this yields about 200 nanomoles per microliter.) This preparation affords the substrate to be used in the hydrolysis reactions. […]

[2] = in vivo animal feeding study for caloric availability; design: species or system male Sprague-Dawley rats; conditions: rats, diet of 50% fort and 21% test compound, 14 days
Excerpt: This example illustrates how the novel fat mimetics of this invention are screened for caloric availability by a carefully controlled in vivo animal feeding study.
An experimental relationship between total calories ingested and animal body weight gain is established by monitoring the body weight gain associated with consumption of a nutritionally balanced diet containing varying concentrations of a reference substance such as corn oil which has a known caloric availability. Correlations between total calories ingested and body weight gain are excellent (r=0.99).
Caloric availability of an unknown substance is evaluated by substituting a specific weight of the unknown substance for the reference substance and observing the body weight gain. The gain in body weight is equated to a total number of calories using the correlation previously established for the reference data. The estimated number of calories ingested are divided by the weight of unknown substance to give the apparent calories per gram for the unknown substance. Generally speaking, in these bioavailability studies, the degree of perianal pelt soiling correlates with reduced bioavailability.
The test animals are six-week-old male Sprague-Dawley rats obtained from the Portage, Mich. facility of the Charles River Laboratories, Inc. After acclamation for 15 days, the test duration is 14 days. […]

pancreatic lipase = conditions: Minich, col. 4, lines 62-64; cited from earlier work
[3] = rat, in vivo; cited from earlier work

CCCCCCCC/C=C\CCCCCCCC(=O)OCC(C)(COC(=O)CCCCCCC/C=C\CCCCCCCC)COC(=O)CCCCCCC/C=C\CCCCCCCC [Example 1, 1,1,1-Tris hydroxymethylethane trioleate]
hydrolysis by pancreatic lipase ([1]; after three hours contact with pancreatic lipase): limited hydrolysis | caloric availability upon being metabolized [2]: about 3.3 kcal/gram

CCCCCCCC(=O)OCC(COC(=O)CCCCCCC)(COC(=O)CCCCCCC)COC(=O)CCCCCCC [pentaerythritol tetracaprylate]
hydrolysis by pancreatic lipase (pancreatic lipase): not attacked, hydrolyzed

CCCCCCCC/C=C\CCCCCCCC(=O)OCC(COC(=O)CCCCCCC/C=C\CCCCCCCC)OC(=O)CCCCCCC/C=C\CCCCCCCC [triolein]
hydrolysis by pancreatic lipase ([1]; triglyceride control, in 10 minutes): substantially hydrolyzed

corn oil
caloric availability of reference [3]: 9.0 calories/gram
